The values that follow come from PubChem BioAssay (NCI).

Values joined by “and” are separate entries in the source; they are usually repeats but may differ in a detail not shown here. Equal entries are not always repeated.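 These data come from cells grown in 96-well plates and exposed to compound for 48 hours at five concentrations. GI50: concentration for 50% inhibition of growth. Definition used: TGI = concentration required for complete inhibition of growth.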 Some results are limits rather than exact numbers.

This assay concerns MDA-MB-468 breast. Briefly: NCI tumour cell line growth inhibition, 48 h.
On to `CCOC(=O)Nc1ccc2nc(Sc3ccc(Cl)cc3)sc2c1`, for which the GI50 was 719 nM and the TGI turned out to be 3670 nM.

In the case of `Nc1ccc(Sc2ccc3c4c2cccc4c(=O)n2c4ccccc4nc32)cc1`, the GI50 was 3190 nM and the TGI turned out to be 20800 nM.

In the case of `O=C(c1nc2ccccc2[nH]1)C1C(c2cccc([N+](=O)[O-])c2)C2CC3CCCCC3N2[C@@]12C(=O)Nc1cc(Cl)ccc12` (stereo not given in full), the GI50 was 1390 nM and the TGI was 4000 nM.

For the compound `Cn1cc(C2=C(c3cn(C)c4cc(Cl)ccc34)C(=O)NC2=O)c2ccccc21`, the GI50 was 74.4 nM and the TGI amounted to 5960 nM.

With `Cn1ccnc1C(=O)/C=C/c1ccc(CC(=O)Nc2cc(F)c(F)c(F)c2)cc1`, the GI50 is 636 nM and the TGI was determined as 1960 nM.

For `Cc1ccc(/C=C2\CN(C(=O)CCN3CCC(=NO)CC3)C/C(=C\c3ccc(C)cc3)C2=O)cc1`, the GI50 was 1460 nM and the TGI was 3460 nM.

Take `COc1cc(C2CC(c3cc(Cl)c(C)cc3O)=NN2c2ccc(S(N)(=O)=O)cc2)cc(OC)c1OC` (stereo not given): the GI50 was 2640 nM and the TGI came out at 9070 nM.

As to `Cc1cc2nc3c4cc(Cl)ccc4n(CC(=O)NCCN(C)C)c3nc2cc1C`, the GI50 was 11300 nM and the TGI is 23800 nM.

As to `CCN(CC)c1ccc(/C=C2/NC(=O)NC2=O)cc1`, the GI50 was 981 nM and the TGI turned out to be 7840 nM.

`COc1ccc(Nc2ccnc3cc(Cl)ccc23)cc1CN(CCCl)CCCl`: the GI50 was 195 nM and the TGI amounted to 840 nM.

With `O=C(CN1CCN(c2cc3c(cc2F)c(=O)c(C(=O)O)cn3C2CC2)CC1)Nc1ccc(C(=O)/C=C/c2ccccc2)cc1`, the GI50 is 2450 nM and the TGI turned out to be 23200 nM.

`CO[C@H]1/C=C/C=C/C=C/C[C@H](OC(=O)[C@@H](C)NC(=O)C2CCCCC2)[C@H](C)[C@@H](O)/C(C)=C\CCC2=CC(=O)C=C(NC(=O)C1)C2=O`: the GI50 is 142 nM and the TGI was 740 nM.

Turning to `NC(=S)c1cn(C2OC(CO)C(O)C2O)c2ncnc(N)c12` (stereo not given), the GI50 was 58.9 nM and the TGI is 252 nM.

Consider `N#CCCCCCn1c2ccccc2c2c3c(c4c5ccccc5[nH]c4c21)C(=O)N(O)C3=O`, for which the GI50 was 1480 nM and the TGI stood at 5980 nM.

With `Nc1ncn(C2OC(CO)C(O)C2O)c(=O)n1` (stereo not given), the GI50 was 1210 nM and 925 nM; the TGI is 6450 nM and 8060 nM.

As to `O=C(Nc1ccc(Oc2cccc(Cl)c2)c(Cl)c1)c1cccnc1`, the GI50 is 565 nM and the TGI is 4150 nM.

Take `O=C(Nc1ccc(I)cc1F)c1cc(F)ccc1O`: the GI50 was 898 nM and the TGI was 5300 nM.

In the case of `CCN(Cc1cccc(C)c1)c1ccc(CO)c(Cl)c1`, the GI50 was 36.2 nM and the TGI came to 134 nM.

As for `CCN(CC)CCn1nc2c3c(cccc3c1=O)-c1ccccc1-2`, the GI50 is 2220 nM and the TGI was 8430 nM.

In the case of `CN1CCN(Cc2ccc(NC(=O)c3cncc(C#Cc4cncc5[nH]ncc45)c3)cc2C(F)(F)F)CC1`, the GI50 is 1080 nM and the TGI was determined as 4080 nM.

With `Cc1cccc(Cc2cnc(NC(=O)/C=C/c3ccco3)s2)c1`, the GI50 is 40.7 nM and the TGI amounted to 13200 nM.

In the case of `O=C(N/N=C\c1cc(Br)cc(Br)c1O)N/N=C/c1cc(Br)cc(Br)c1O`, the GI50 was 3130 nM and the TGI came to 8850 nM.

As to `COc1ccc(C(=O)C(CN(C)C)c2ccccc2)cc1` (stereo not given), the GI50 is 1930 nM and the TGI is 4960 nM.

As to `c1ccc(-c2nn(-c3ccccc3)[n+](-c3ccccc3-c3ccccc3)n2)cc1`, the GI50 was 189 nM and the TGI was determined as 923 nM.

`Cn1cc(-c2nnc(N)nc2-c2c[nH]c3ccc(F)cc23)c2cc(Br)ccc21`: the GI50 was 1240 nM and the TGI came out at 7750 nM.

Consider `COc1ccc(C2C3=C(COC3=O)N(CCO)c3cc4c(cc32)CCC4)cc1OC` (stereo not given), for which the GI50 was 184 nM.

Turning to `CCc1cc(Nc2nccc(-c3c(-c4ccc(OC)c(C(=O)Nc5c(F)cccc5F)c4)nc4ccccn34)n2)c(OC)cc1N1CCC(N2CCN(S(C)(=O)=O)CC2)CC1`, the GI50 is more than 82700 nM and the TGI was more than 100000 nM.

Consider `Cc1cncc2cccc(S(=O)(=O)N3CCCNC[C@@H]3C)c12`, for which the GI50 was 19000 nM and the TGI was more than 91100 nM.

`CCCCOc1nc2ccccc2cc1C1CNC(=O)c2ccccc2N1` (stereo not given): the GI50 was 2030 nM and the TGI was determined as 9560 nM.

On to `COc1cc2cc(Oc3ccc(NC(=O)Nc4cc(C(F)(F)F)cc(C(F)(F)F)c4)cc3)c(C)nc2cc1OCCN1CCCCC1`, for which the GI50 is 1670 nM and the TGI amounted to 3320 nM.

For `CCn1c(-c2nonc2N)nc2c(C#CC(C)(C)O)ncc(OCC3CCNCC3)c21`, the GI50 was 336 nM and the TGI was more than 25000 nM.

As to H-KIFKKFKTIIKKVWRIFGRF-NH2, the GI50 is 1320 nM and the TGI stood at 5940 nM.

Regarding `COC(=O)C1=C(C)NC(C)=C(C(=O)OC)C1c1ccccc1[N+](=O)[O-]`, the GI50 was 25300 nM and the TGI is more than 100000 nM.

Turning to `Fc1ccc(-c2ncn(C3CCNCC3)c2-c2ccnc(Oc3ccc(Oc4ccccc4)cc3)n2)cc1`, the GI50 was 1940 nM and the TGI amounted to 5570 nM.

As to `CCN(CC)Cc1cc(Nc2c3ccc(Cl)cc3nc3c(C)cccc23)ccc1O`, the GI50 was 1370 nM and the TGI worked out at 2830 nM.

Consider `Nc1cc2ccncc2c2ccccc12`, for which the GI50 is 12300 nM and the TGI is 36500 nM.

Turning to `COC(=O)[C@@H](C)C[C@H](Cc1ccccc1)NC(=O)c1csc([C@@H](C[C@H](C(C)C)N(C)C(=O)[C@@H](NC(=O)CN(C)C)C2CC2)OC(C)=O)n1`, the GI50 is 6.58 nM.

Take `CC(=O)O[C@H]1Cc2c([nH]c3ccccc23)[C@@H](c2ccc(Cl)cc2)N1C(=O)CCNC(C)(C)C`: the GI50 is 3180 nM and the TGI worked out at 7670 nM.

`CCN1CCN(c2nc(NNC(=O)c3cccc(OC)c3)nc(N3CCN(C(c4ccccc4)c4ccccc4)CC3)n2)CC1`: the GI50 is 1910 nM and the TGI turned out to be 4920 nM.

As for `Clc1ccc2c(NCCNc3nc(Cl)nc4ccccc34)ccnc2c1`, the GI50 is 583 nM and the TGI was found to be 2030 nM.

As to `Cn1cc(C2=C(c3cccc(Cl)c3)C(=O)NC2=O)c2ccccc21`, the GI50 was 4480 nM and the TGI came out at 24600 nM.
